Data on 25 compounds can be found in patent US11771738B2 (Zoetis Services LLC, priority 2018, dated 2023).

The subject of this assay is third stage larvae of Haemonchus contortus. The assay can be described thus: Haemonchus contortus, Larvae Stage 3 (HcL3) In Vitro Assay. The assay is classed as cell-based. The settings on record: for HcL3 MED (symbol after Ex#): approximately 96 hours incubation, multiple-resistant field isolate; for HcL3 MED: Haemonchus contortus third stage larvae in vitro, class mark appended to the Ex # in Table 3.

Marks after values point to notes of the source that are not given here.

For the compound `COc1cc(F)ccc1Cc1ccc(C[C@H]2OC(=O)[C@H](CC(C)C)N(C)C(=O)[C@@H](C)OC(=O)[C@H](CC(C)C)N(C)C(=O)[C@@H](Cc3ccccc3)OC(=O)[C@H](CC(C)C)N(C)C(=O)[C@@H](C)OC(=O)[C@H](CC(C)C)N(C)C2=O)cc1` [Example 2-9], the “HcL3 MED (symbol after Ex#)” value is recorded as 2-9* (Examples with an asterisk (*) have HcL3 MED values≤1 μM).

For `COc1ccccc1Cc1ccc(C[C@H]2OC(=O)[C@H](CC(C)C)N(C)C(=O)[C@@H](C)OC(=O)[C@H](CC(C)C)N(C)C(=O)[C@@H](Cc3ccccc3)OC(=O)[C@H](CC(C)C)N(C)C(=O)[C@@H](C)OC(=O)[C@H](CC(C)C)N(C)C2=O)cc1` [Example 2-12], the “HcL3 MED (symbol after Ex#)” value was 2-12^ (Examples with a carrot (^) have HcL3 MED values>1 and ≤3.3 μM).

With `CC(C)C[C@H]1C(=O)O[C@H](Cc2ccc(Cc3cccnc3)cc2)C(=O)N(C)[C@@H](CC(C)C)C(=O)O[C@H](C)C(=O)N(C)[C@@H](CC(C)C)C(=O)O[C@H](Cc2ccc(Cc3cccnc3)cc2)C(=O)N(C)[C@@H](CC(C)C)C(=O)O[C@H](C)C(=O)N1C` [Example 3-3], the “HcL3 MED” value is 3-3^ (Examples with a carrot (^) have HcL3 MED values>1 and ≤3.3 μM).

Take `CC(C)C[C@H]1C(=O)O[C@H](Cc2ccc(Cc3nncs3)cc2)C(=O)N(C)[C@@H](CC(C)C)C(=O)O[C@H](C)C(=O)N(C)[C@@H](CC(C)C)C(=O)O[C@H](Cc2ccc(Cc3nncs3)cc2)C(=O)N(C)[C@@H](CC(C)C)C(=O)O[C@H](C)C(=O)N1C` [Example 3-14]: the “HcL3 MED” value was 3-14* (Examples with an asterisk (*) have HcL3 MED values≤1 μM).

For `CC(C)C[C@H]1C(=O)O[C@H](Cc2ccc(Cc3ccccn3)cc2)C(=O)N(C)[C@@H](CC(C)C)C(=O)O[C@H](C)C(=O)N(C)[C@@H](CC(C)C)C(=O)O[C@H](Cc2ccc(Cc3ccccn3)cc2)C(=O)N(C)[C@@H](CC(C)C)C(=O)O[C@H](C)C(=O)N1C` [Example 3-27], the “HcL3 MED” value was 3-27^ (Examples with a carrot (^) have HcL3 MED values>1 and ≤3.3 μM).

Turning to `CC(C)C[C@H]1C(=O)O[C@H](Cc2ccc(Cc3nc(-c4ccccc4)cs3)cc2)C(=O)N(C)[C@@H](CC(C)C)C(=O)O[C@H](C)C(=O)N(C)[C@@H](CC(C)C)C(=O)O[C@H](Cc2ccc(Cc3nc(-c4ccccc4)cs3)cc2)C(=O)N(C)[C@@H](CC(C)C)C(=O)O[C@H](C)C(=O)N1C` [Example 3-36], the “HcL3 MED” value is 3-36* (Examples with an asterisk (*) have HcL3 MED values≤1 μM).

On to `CC(C)C[C@H]1C(=O)O[C@H](Cc2ccc(Cc3cscn3)cc2)C(=O)N(C)[C@@H](CC(C)C)C(=O)O[C@H](C)C(=O)N(C)[C@@H](CC(C)C)C(=O)O[C@H](Cc2ccc(Cc3cscn3)cc2)C(=O)N(C)[C@@H](CC(C)C)C(=O)O[C@H](C)C(=O)N1C` [Example 3-45], for which the “HcL3 MED” value was 3-45* (Examples with an asterisk (*) have HcL3 MED values≤1 μM).

Turning to `Cc1nc(C)c(Cc2ccc(C[C@H]3OC(=O)[C@H](CC(C)C)N(C)C(=O)[C@@H](C)OC(=O)[C@H](CC(C)C)N(C)C(=O)[C@@H](Cc4ccc(Cc5sc(C)nc5C)cc4)OC(=O)[C@H](CC(C)C)N(C)C(=O)[C@@H](C)OC(=O)[C@H](CC(C)C)N(C)C3=O)cc2)s1` [Example 3-52], the “HcL3 MED” value is on record as 3-52* (Examples with an asterisk (*) have HcL3 MED values≤1 μM).

Turning to `CC(C)C[C@H]1C(=O)O[C@H](Cc2ccc(Cc3ncccn3)cc2)C(=O)N(C)[C@@H](CC(C)C)C(=O)O[C@H](C)C(=O)N(C)[C@@H](CC(C)C)C(=O)O[C@H](Cc2ccc(Cc3ncccn3)cc2)C(=O)N(C)[C@@H](CC(C)C)C(=O)O[C@H](C)C(=O)N1C` [Example 3-73], the “HcL3 MED” value is 3-73* (Examples with an asterisk (*) have HcL3 MED values≤1 μM).

For the compound `Cc1nc(Cc2ccc(C[C@H]3OC(=O)[C@H](CC(C)C)N(C)C(=O)[C@@H](C)OC(=O)[C@H](CC(C)C)N(C)C(=O)[C@@H](Cc4ccc(Cc5csc(C)n5)cc4)OC(=O)[C@H](CC(C)C)N(C)C(=O)[C@@H](C)OC(=O)[C@H](CC(C)C)N(C)C3=O)cc2)cs1` [Example 3-76], the “HcL3 MED” value is 3-76^ (Examples with a carrot (^) have HcL3 MED values>1 and ≤3.3 μM).

As for `Cc1nc(Cc2ccc(C[C@H]3OC(=O)[C@H](CC(C)C)N(C)C(=O)[C@@H](C)OC(=O)[C@H](CC(C)C)N(C)C(=O)[C@@H](Cc4ccc(Cc5nc(C)oc5C)cc4)OC(=O)[C@H](CC(C)C)N(C)C(=O)[C@@H](C)OC(=O)[C@H](CC(C)C)N(C)C3=O)cc2)c(C)o1` [Example 3-81], the “HcL3 MED” value was 3-81^ (Examples with a carrot (^) have HcL3 MED values>1 and ≤3.3 μM).

As to `COc1cc(Cc2ccc(C[C@H]3OC(=O)[C@H](CC(C)C)N(C)C(=O)[C@@H](C)OC(=O)[C@H](CC(C)C)N(C)C(=O)[C@@H](Cc4ccc(Cc5cnc(OC)c(OC)c5)cc4)OC(=O)[C@H](CC(C)C)N(C)C(=O)[C@@H](C)OC(=O)[C@H](CC(C)C)N(C)C3=O)cc2)cnc1OC` [Example 3-115], the “HcL3 MED” value was 3-115^ (Examples with a carrot (^) have HcL3 MED values>1 and ≤3.3 μM).

As for `CC(C)C[C@H]1C(=O)O[C@H](Cc2ccc(Cc3cnn(C(F)F)c3)cc2)C(=O)N(C)[C@@H](CC(C)C)C(=O)O[C@H](C)C(=O)N(C)[C@@H](CC(C)C)C(=O)O[C@H](Cc2ccc(Cc3cnn(C(F)F)c3)cc2)C(=O)N(C)[C@@H](CC(C)C)C(=O)O[C@H](C)C(=O)N1C` [Example 3-119], the “HcL3 MED” value is reported as 3-119* (Examples with an asterisk (*) have HcL3 MED values≤1 μM).

In the case of `Cc1nnsc1C(O)c1ccc(C[C@H]2OC(=O)[C@H](CC(C)C)N(C)C(=O)[C@@H](C)OC(=O)[C@H](CC(C)C)N(C)C(=O)[C@@H](Cc3ccc(C(O)c4snnc4C)cc3)OC(=O)[C@H](CC(C)C)N(C)C(=O)[C@@H](C)OC(=O)[C@H](CC(C)C)N(C)C2=O)cc1` (stereo partly shown) [Example 3-126], the “HcL3 MED” value is listed as 3-126* (Examples with an asterisk (*) have HcL3 MED values≤1 μM).

Take `COc1cc(Cc2ccc(C[C@H]3OC(=O)[C@H](CC(C)C)N(C)C(=O)[C@@H](C)OC(=O)[C@H](CC(C)C)N(C)C(=O)[C@@H](Cc4ccc(Cc5ccnc(OC)c5)cc4)OC(=O)[C@H](CC(C)C)N(C)C(=O)[C@@H](C)OC(=O)[C@H](CC(C)C)N(C)C3=O)cc2)ccn1` [Example 3-192]: the “HcL3 MED” value is 3-192^ (Examples with a carrot (^) have HcL3 MED values>1 and ≤3.3 μM).

`CC(C)C[C@H]1C(=O)O[C@H](Cc2ccc(Cc3ccnn3CC(C)C)cc2)C(=O)N(C)[C@@H](CC(C)C)C(=O)O[C@H](C)C(=O)N(C)[C@@H](CC(C)C)C(=O)O[C@H](Cc2ccc(Cc3ccnn3CC(C)C)cc2)C(=O)N(C)[C@@H](CC(C)C)C(=O)O[C@H](C)C(=O)N1C` [Example 3-211]: the “HcL3 MED” value is 3-211^ (Examples with a carrot (^) have HcL3 MED values>1 and ≤3.3 μM).

Take `Cc1ncc(Cc2ccc(C[C@H]3OC(=O)[C@H](CC(C)C)N(C)C(=O)[C@@H](C)OC(=O)[C@H](CC(C)C)N(C)C(=O)[C@@H](Cc4ccc(Cc5cnc(C)o5)cc4)OC(=O)[C@H](CC(C)C)N(C)C(=O)[C@@H](C)OC(=O)[C@H](CC(C)C)N(C)C3=O)cc2)o1` [Example 3-298]: the “HcL3 MED” value was 3-298^ (Examples with a carrot (^) have HcL3 MED values>1 and ≤3.3 μM).

Take `CC(C)C[C@H]1C(=O)O[C@H](Cc2ccc(Cc3cc[nH]n3)cc2)C(=O)N(C)[C@@H](CC(C)C)C(=O)O[C@H](C)C(=O)N(C)[C@@H](CC(C)C)C(=O)O[C@H](Cc2ccc(Cc3cc[nH]n3)cc2)C(=O)N(C)[C@@H](CC(C)C)C(=O)O[C@H](C)C(=O)N1C` [Example 3-301]: the “HcL3 MED” value is 3-301^ (Examples with a carrot (^) have HcL3 MED values>1 and ≤3.3 μM).

As for `CCCn1nccc1Cc1ccc(C[C@H]2OC(=O)[C@H](CC(C)C)N(C)C(=O)[C@@H](C)OC(=O)[C@H](CC(C)C)N(C)C(=O)[C@@H](Cc3ccc(Cc4ccnn4CCC)cc3)OC(=O)[C@H](CC(C)C)N(C)C(=O)[C@@H](C)OC(=O)[C@H](CC(C)C)N(C)C2=O)cc1` [Example 3-303], the “HcL3 MED” value is reported as 3-303* (Examples with an asterisk (*) have HcL3 MED values≤1 μM).

Consider `CC(C)C[C@H]1C(=O)O[C@H](Cc2ccc(Cc3ccnn3C(C)C)cc2)C(=O)N(C)[C@@H](CC(C)C)C(=O)O[C@H](C)C(=O)N(C)[C@@H](CC(C)C)C(=O)O[C@H](Cc2ccc(Cc3ccnn3C(C)C)cc2)C(=O)N(C)[C@@H](CC(C)C)C(=O)O[C@H](C)C(=O)N1C` [Example 3-305], for which the “HcL3 MED” value is 3-305* (Examples with an asterisk (*) have HcL3 MED values≤1 μM).

Consider `CC(C)C[C@H]1C(=O)O[C@H](Cc2ccc(Cc3cnccc3C3CC3)cc2)C(=O)N(C)[C@@H](CC(C)C)C(=O)O[C@H](C)C(=O)N(C)[C@@H](CC(C)C)C(=O)O[C@H](Cc2ccc(Cc3cnccc3C3CC3)cc2)C(=O)N(C)[C@@H](CC(C)C)C(=O)O[C@H](C)C(=O)N1C` [Example 3-306], for which the “HcL3 MED” value is recorded as 3-306* (Examples with an asterisk (*) have HcL3 MED values≤1 μM).

As for `Cc1nn(C)cc1Cc1ccc(C[C@H]2OC(=O)[C@H](CC(C)C)N(C)C(=O)[C@@H](C)OC(=O)[C@H](CC(C)C)N(C)C(=O)[C@@H](Cc3ccccc3)OC(=O)[C@H](CC(C)C)N(C)C(=O)[C@@H](C)OC(=O)[C@H](CC(C)C)N(C)C2=O)cc1` [Example 4-3], the “HcL3 MED (symbol after Ex#)” value was 4-3^ (Examples with a carrot (^) have HcL3 MED values>1 and ≤3.3 μM).

Turning to `CC(C)C[C@H]1C(=O)O[C@H](Cc2ccc(Cc3cccs3)cc2)C(=O)N(C)[C@@H](CC(C)C)C(=O)O[C@H](C)C(=O)N(C)[C@@H](CC(C)C)C(=O)O[C@H](Cc2ccccc2)C(=O)N(C)[C@@H](CC(C)C)C(=O)O[C@H](C)C(=O)N1C` [Example 4-5], the “HcL3 MED (symbol after Ex#)” value was 4-5^ (Examples with a carrot (^) have HcL3 MED values>1 and ≤3.3 μM).

Take `COc1ncccc1Cc1ccc(C[C@H]2OC(=O)[C@H](CC(C)C)N(C)C(=O)[C@@H](C)OC(=O)[C@H](CC(C)C)N(C)C(=O)[C@@H](Cc3ccccc3)OC(=O)[C@H](CC(C)C)N(C)C(=O)[C@@H](C)OC(=O)[C@H](CC(C)C)N(C)C2=O)cc1` [Example 4-22]: the “HcL3 MED (symbol after Ex#)” value was 4-22^ (Examples with a carrot (^) have HcL3 MED values>1 and ≤3.3 μM).

For the compound `CC(C)C[C@H]1C(=O)O[C@H](Cc2ccc(Cc3nccs3)cc2)C(=O)N(C)[C@@H](CC(C)C)C(=O)O[C@H](C)C(=O)N(C)[C@@H](CC(C)C)C(=O)O[C@H](Cc2ccccc2)C(=O)N(C)[C@@H](CC(C)C)C(=O)O[C@H](C)C(=O)N1C` [Example 4-31], the “HcL3 MED (symbol after Ex#)” value is reported as 4-31* (Examples with an asterisk (*) have HcL3 MED values≤1 μM).
